Read-outs that look alike come from different tables or passages of the source.
Columns and labels:
[1] = Binding to plasma proteins, equilibrium dialysis; type: in vitro ADME; conditions: human, plasma of dosed study participants, oral, participants' plasma Day 7
Method: Binding to plasma proteins was determined in participants' plasma (Day 7) using a qualified equilibrium dialysis protocol. The mean % unbound was 0.292%±0.067%, and ranged from 0.182% to 0.38% across the 20-mg cohort participants. The mean % unbound was 0.318%+0.065% and ranged from 0.22% to 0.376% across the 40-mg cohort participants. Due to the unexpected amount of plasma protein binding in these participants, it was decided to examine higher doses of the dual […] inhibitor (Compound 5) to determine whether such higher doses would compensate for the high protein binding and provide greater amounts of free drug.

[2] = system: normal bronchial epithelial cell; test: normal bronchial epithelial cell adhesion to LAP (FIG. 3A); type: cell-based
[3] = system: IPF-derived lung fibroblasts; test: cell adhesion in IPF-derived lung fibroblasts (FIG. 3B); type: cell-based
[4] = system: human bronchial epithelial cells; test: LAP adhesion binding assay, normal human bronchial epithelial cells (xCELLigence cell index); type: cell-based; conditions: FIG. 3A; cell index (electrical impedance)
Method: Two latency associated peptide (LAP) adhesion binding assays were devised using primary human lung cells, including normal (healthy) human bronchial epithelial cells and human lung fibroblasts (healthy and IPF).
Human bronchial epithelial cells are known to express αvβ6 integrin in culture. Human bronchial epithelial cells were prepared for the assay by dissociation with trypsin/EDTA and were then seeded at 20,000 cells per well on 96 well plates (ACEA Bioscience E-plate View, Acea Biosciences; San Diego, Calif.) previously coated with 5 μg/ml of recombinant human LAP (R&D Systems; Minneapolis, Minn.) and blocked with 4% bovine serum albumin. Cell index (electrical impedance) was measured to assess cell attachment/spreading every 3 minutes for 24 hours at 37° C./5% CO2 using the xCELLigence RTCA MP Instrument (Acea Biosciences; San Diego, Calif.).

[5] = Multiple dose pharmacokinetics (MAD), Example B14; type: in vivo; conditions: human, plasma, oral; for AUC(0-t): read-out: AUC0−24, ng × h/mL; for Tmax: median
Description: Accordingly, a study was designed to assess the PK of Compound 5 after a single dose and following a 6-day course of doses, at levels exceeding the dosages used in preceding Examples B12 and B13. This study was designed to assess at these higher doses aspects of the single-dose and steady-state pharmacokinetics of Compound 5.
This study was a single-center, randomized, double-blind, ascending dose, placebo-controlled study in healthy participants. Each cohort included 10 participants (8 active, 2 placebo). Study participants received single ascending doses (SAD) of Compound 5 of 120, 160, 240, 320, 480, and 640 mg and multiple ascending doses (MAD) of Compound 5 of 80, 120, 160, 240, and 320 mg. Two cohorts of participants at 160 mg were studied in the MAD phase of the study.
Participants received 7 daily doses of Compound 5 80, 120, 160, 240, and 320 mg. A total of 60 participants were enrolled across the dosing groups, with 48 participants who received Compound 5 available for PK analyses. One participant discontinued study drug prior to completing all study procedures. […] Despite the substantially higher dosages, the PK parameters in the dosing groups were consistent with those observed at lower doses in Example B12. Following multiple doses of Compound 5 (oral solution) ranging from 80 to 320 mg QD, median plasma Compound 5 concentrations reached maximum levels after 3 to 4 hours. Geometric mean T1/2 remained relatively unchanged with increasing dose, ranging from 36 to 55 hours.

lung Col1a1 expression = test: Precision cut lung slices, chronic bleomycin, comparison with nintedanib and pirfenidone (Example B10); type: cell-based, Mice (C57BL/6); conditions: chronic bleomycin PCLS, 7 days culture, vs DMSO vehicle; FIG. 6A
Method: Mice (C57BL/6) were administered 3 U/kg of bleomycin (Teva Pharmaceuticals; North Wales, Pa.) on Day 0 and 1 U/kg of bleomycin on days 14, 28, 42 and 56 via oropharyngeal aspiration while under anesthesia. At day 70, 14 days following the final bleomycin insult, precision cut lung slices were obtained. Following euthanization, 2% low gelling temp agarose was injected into the mouse lungs via the trachea. […] The lobes were then subjected to precision slicing to obtain samples for culture using a microtome (Compresstome VF-300-0Z, Precisionary; Greenville, N.C.). Individual slices were distributed in a multiwell culture plate and cultured for 7 days under control (DMSO) and test compound conditions. The viability of the slices over the course of culturing was confirmed by WST-1 assay of mitochondrial activity.
During the culture period, slices in the control group were treated with DMSO and slices in the test group were treated with a DMSO solution of one of: compound 5; nintedanib; pirfenidone; a combination of nintedanib and compound 5; a combination of pirfenidone and compound 5; or the small molecule ALK5 inhibitor. Compound 5 was […] effective to equal or exceed its respective IC50 values at αvβ6 and αvβ1. […] Nintendanib and pirfenidone were analyzed at concentrations 10× their reported therapeutic concentrations.

[6] = 80 mg daily, Day 7, geometric mean
[7] = 120 mg daily, Day 7, geometric mean
[8] = 160 mg daily, Day 7, two cohorts pooled, geometric mean
[9] = 240 mg daily, Day 7, geometric mean
[10] = 320 mg daily, Day 7, geometric mean

Q: Which fraction unbound ([1]; 20 mg, 20-mg cohort, read-out: % unbound, range across participants) does the source give for `COCCN(CCCCc1ccc2c(n1)NCCC2)CC[C@H](Nc1ncnc2ccccc12)C(=O)O` [Compound 5, (S)-4-((2-methoxyethyl) (4-(5,6,7,8-tetrahydro-1,8-naphthyridin-2-yl)butyl)amino)-2-(quinazolin-4-ylamino) butanoic acid] here?
A: 0.00182 to 0.0038

Q: And the fraction unbound ([1]; 20 mg, 20-mg cohort, read-out: mean % unbound)?
A: 0.00292

Q: And the fraction unbound ([1]; 40 mg, 40-mg cohort, read-out: % unbound, range across participants)?
A: 0.0022 to 0.00376

Q: What about the fraction unbound ([1]; 40 mg, 40-mg cohort, read-out: mean % unbound) of the same compound?
A: 0.00318

Q: What about the “normal bronchial epithelial cell adhesion to LAP” value [2] of the same compound?
A: substantially inhibited

Q: And the “cell adhesion in the IPF-derived lung fibroblasts” value [3]?
A: substantially inhibited

Q: And the “inhibition of normal bronchial epithelial cell adhesion to LAP” value [4]?
A: substantially inhibited

Q: And the Cmax [5, 6]?
A: 1850 ng/mL

Q: What about the AUC(0-t) [5, 6] of the same compound?
A: 19200 ng·h/mL

Q: And the half-life ([5]; 80 mg daily, Day 7, geometric mean, read-out: T1/2 (converted))?
A: 36.1 h

Q: And the Tmax ([5]; 80 mg daily, Day 7)?
A: 3.5 h

Q: And the Cmax [5, 7]?
A: 4040 ng/mL

Q: And the AUC(0-t) [5, 7]?
A: 49400 ng·h/mL

Q: And the half-life ([5]; 120 mg daily, Day 7, geometric mean, read-out: T1/2 (converted))?
A: 55.4 h

Q: And the Tmax ([5]; 120 mg daily, Day 7)?
A: 4.03 h

Q: And the Cmax [5, 8]?
A: 3790 ng/mL

Q: And the AUC(0-t) [5, 8]?
A: 49400 ng·h/mL

Q: What about the half-life ([5]; 160 mg daily, Day 7, two cohorts pooled, geometric mean, read-out: T1/2 (converted)) of the same compound?
A: 41.7 h

Q: What about the Tmax ([5]; 160 mg daily, Day 7, two cohorts pooled) of the same compound?
A: 3 h

Q: And the Cmax [5, 9]?
A: 5140 ng/mL

Q: And the AUC(0-t) [5, 9]?
A: 63000 ng·h/mL

Q: What about the half-life ([5]; 240 mg daily, Day 7, geometric mean, read-out: T1/2 (converted)) of the same compound?
A: 50.5 h

Q: What about the Tmax ([5]; 240 mg daily, Day 7) of the same compound?
A: 3 h

Q: What about the Cmax [5, 10] of the same compound?
A: 5730 ng/mL

Q: And the AUC(0-t) [5, 10]?
A: 74500 ng·h/mL

Q: What about the half-life ([5]; 320 mg daily, Day 7, geometric mean, read-out: T1/2 (converted)) of the same compound?
A: 46 h

Q: What about the Tmax ([5]; 320 mg daily, Day 7) of the same compound?
A: 3.56 h

Q: And the half-life ([5]; multiple doses 80 to 320 mg QD, read-out: Geometric mean T1/2)?
A: 36 to 55 h

Q: And the “lung slice Col1a1 expression” value (lung Col1a1 expression)?
A: substantial, statistically significant (p<0.01 vs vehicle) decrease

Source: US20230028658A1, “EXPANDED DOSAGE REGIMENS FOR INTEGRIN INHIBITORS” (Pliant Therapeutics, Inc., priority 2021, published 2023)
